From ChEMBL document CHEMBL3885861, “Open TG-GATES”

Species: Rattus norvegicus
Experiment: Open TG-GATES - Regimen: Daily Repeat
Format: toxicity, organism-based, Sprague-Dawley
Design: regimen Daily Repeat, gender Male, age 6 weeks
Conditions: in vivo, po, 0 mg/kg, route gavage, dose level Control; for APTT / Bas / Eos / Fbg / Hb / Ht / Lym / MCH / MCHC / MCV / Mono / Neu / PT / Plat / RBC / Ret / WBC: tissue Blood; for KIDNEY_L / KIDNEY_R / KIDNEY_TOTAL: tissue Kidney; for LIVER: tissue Liver; for A/G / ALP / ALT / AST / BUN / CRE / Ca / Cl / DBIL / GLC / IP / K / LDH / Na / PL / RALB / TBIL / TC / TG / TP / gamma-GTP: tissue Plasma

## CCOc1ccc(NC(=O)CC(C)O)cc1 (configuration not stated) [BUCETIN]
72 h, time 3 day
  TERMINAL_BW: 249.6 g
  APTT: 17.8 s
  Bas: 0%
  Eos: 1%
  Fbg: 305.2 mg/dL
  Hb: 13.4 g/dL
  Ht: 40.2%
  Lym: 73.4%
  MCH: 21.3 pg
  MCHC: 33.3%
  MCV: 64.1 fL
  Mono: 3%
  Neu: 22%
  PT: 14 s
  Plat: 120.3 x10_4/uL
  RBC: 627 x10_4/ul
  Ret: 7.2%
  WBC: 91.6 x10_2/uL
  KIDNEY_L: 1.1 g
  KIDNEY_R: 1.1 g
  KIDNEY_TOTAL: 2.1 g
  LIVER: 11.9 g
  A/G: 0.8
  ALP: 1726.4 IU/L
  ALT: 33.8 IU/L
  AST: 66.8 IU/L
  BUN: 14.8 mg/dL
  CRE: 0.2 mg/dL
  Ca: 11 mg/dL
  Cl: 105.4 meq/L
  DBIL: 0.02 mg/dL
  GLC: 179 mg/dL
  IP: 7.5 mg/dL
  K: 4.1 meq/L
  LDH: 67.2 IU/L
  Na: 144 meq/L
  PL: 165.2 mg/dL
  RALB: 2.7 g/dL
  TBIL: 0.048 mg/dL
  TC: 82.4 mg/dL
  TG: 104.6 mg/dL
  TP: 5.9 g/dL
  gamma-GTP: 1.2 IU/L
[…], time 7 day
  TERMINAL_BW: 287 g
  APTT: 16.5 s
  Bas: 0%
  Eos: 1.2%
  Fbg: 262.4 mg/dL
  Hb: 13.5 g/dL
  Ht: 40%
  Lym: 81.2%
  MCH: 20.7 pg
  MCHC: 33.7%
  MCV: 61.5 fL
  Mono: 2.6%
  Neu: 14.4%
  PT: 13.9 s
  Plat: 112.2 x10_4/uL
  RBC: 651 x10_4/ul
  Ret: 6.3%
  WBC: 93.2 x10_2/uL
  KIDNEY_L: 1.2 g
  KIDNEY_R: 1.1 g
  KIDNEY_TOTAL: 2.3 g
  LIVER: 13.2 g
  A/G: 0.8
  ALP: 1795.8 IU/L
  ALT: 32.2 IU/L
  AST: 65.6 IU/L
  BUN: 15.4 mg/dL
  CRE: 0.2 mg/dL
  Ca: 11 mg/dL
  Cl: 105.2 meq/L
  DBIL: 0.018 mg/dL
  GLC: 185 mg/dL
  IP: 7.3 mg/dL
  K: 4 meq/L
  LDH: 95.2 IU/L
  Na: 142.6 meq/L
  PL: 166.6 mg/dL
  RALB: 2.6 g/dL
  TBIL: 0.038 mg/dL
  TC: 77.8 mg/dL
  TG: 144 mg/dL
  TP: 5.8 g/dL
  gamma-GTP: 1 IU/L
[…], time 14 day
  TERMINAL_BW: 375 g
  APTT: 17.7 s
  Bas: 0.2%
  Eos: 1%
  Fbg: 321.4 mg/dL
  Hb: 14 g/dL
  Ht: 41.7%
  Lym: 75.8%
  MCH: 20.2 pg
  MCHC: 33.6%
  MCV: 60.2 fL
  Mono: 2.4%
  Neu: 20.4%
  PT: 13.8 s
  Plat: 127.4 x10_4/uL
  RBC: 694 x10_4/ul
  Ret: 4.6%
  WBC: 121.6 x10_2/uL
  KIDNEY_L: 1.5 g
  KIDNEY_R: 1.3 g
  KIDNEY_TOTAL: 2.8 g
  LIVER: 17.3 g
  A/G: 0.8
  ALP: 1354.4 IU/L
  ALT: 33 IU/L
  AST: 60.8 IU/L
  BUN: 16 mg/dL
  CRE: 0.2 mg/dL
  Ca: 11.1 mg/dL
  Cl: 104.4 meq/L
  DBIL: 0.02 mg/dL
  GLC: 188.8 mg/dL
  IP: 7.4 mg/dL
  K: 3.9 meq/L
  LDH: 97.4 IU/L
  Na: 144.8 meq/L
  PL: 170.2 mg/dL
  RALB: 2.8 g/dL
  TBIL: 0.05 mg/dL
  TC: 81 mg/dL
  TG: 160.8 mg/dL
  TP: 6.3 g/dL
  gamma-GTP: 1.2 IU/L
[…], time 28 day
  TERMINAL_BW: 420.9 g
  APTT: 18.6 s
  Bas: 0.2%
  Eos: 1.2%
  Fbg: 296.4 mg/dL
  Hb: 15.3 g/dL
  Ht: 44%
  Lym: 79.4%
  MCH: 19.7 pg
  MCHC: 34.9%
  MCV: 56.5 fL
  Mono: 2.2%
  Neu: 16.6%
  PT: 13.9 s
  Plat: 99.2 x10_4/uL
  RBC: 778.4 x10_4/ul
  Ret: 2.7%
  WBC: 100.2 x10_2/uL
  KIDNEY_L: 1.4 g
  KIDNEY_R: 1.4 g
  KIDNEY_TOTAL: 2.9 g
  LIVER: 16.3 g
  A/G: 0.8
  ALP: 1201 IU/L
  ALT: 30.8 IU/L
  AST: 62.4 IU/L
  BUN: 15.2 mg/dL
  CRE: 0.3 mg/dL
  Ca: 11 mg/dL
  Cl: 105.8 meq/L
  DBIL: 0.022 mg/dL
  GLC: 188.6 mg/dL
  IP: 5.8 mg/dL
  K: 3.9 meq/L
  LDH: 69.6 IU/L
  Na: 145.4 meq/L
  PL: 146.2 mg/dL
  RALB: 2.8 g/dL
  TBIL: 0.058 mg/dL
  TC: 65.4 mg/dL
  TG: 155.6 mg/dL
  TP: 6.3 g/dL
  gamma-GTP: 2 IU/L
